{
  "source": "paper PMC10280043",
  "about": "(RSC Advances, 2023)",
  "key": {"hCAII": {"molecular_target": "hCAII (Homo sapiens, UniProt P00918)", "assay": "Carbonic anhydrase inhibition assay, hCAII", "assay_type": "biochemical"}, "hCAIX": {"molecular_target": "hCAIX (Homo sapiens, UniProt Q16790)", "assay": "biochemical"}, "hCAXII": {"molecular_target": "hCAXII (Homo sapiens, UniProt O43570)", "sequence (O43570 25-354)": "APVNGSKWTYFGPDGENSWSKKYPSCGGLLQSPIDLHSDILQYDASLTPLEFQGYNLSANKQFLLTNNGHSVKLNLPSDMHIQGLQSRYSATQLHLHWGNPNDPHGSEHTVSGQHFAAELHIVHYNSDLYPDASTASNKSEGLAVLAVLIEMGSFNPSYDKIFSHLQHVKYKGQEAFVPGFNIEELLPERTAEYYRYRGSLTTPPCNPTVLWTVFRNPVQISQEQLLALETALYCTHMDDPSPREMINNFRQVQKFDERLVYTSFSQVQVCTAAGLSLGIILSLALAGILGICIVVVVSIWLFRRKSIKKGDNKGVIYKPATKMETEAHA", "assay": "Carbonic anhydrase inhibition assay, hCAXII", "assay_type": "biochemical"}},
  "data": [
    {"smiles": "NS(=O)(=O)c1ccc(N2N=C(c3ccccc3O)CC2c2ccc(Cl)cc2)cc1", "note": "(stereo not drawn) [4c, 4-(5-(4-Chlorophenyl)-3-(2-hydroxyphenyl)-4,5-dihydro-1H-pyrazol-1-yl)benzene sulfonamide]", "values": [
      {"measurement": "IC50", "setting": "hCAII", "value": "1.2 ± 0.4", "unit": "µM"},
      {"measurement": "IC50", "setting": "hCAIX", "value": "7.08 ± 0.4", "unit": "µM"},
      {"measurement": "IC50", "setting": "hCAXII", "value": "2.87 ± 0.02", "unit": "µM"}
    ]},
    {"smiles": "Cc1ccc(C2CC(c3cc(Br)ccc3O)=NN2c2ccc(S(N)(=O)=O)cc2)cc1", "note": "(stereo not drawn) [4f, 4-(3-(5-Bromo-2-hydroxyphenyl)-5-(p-tolyl)-4,5-dihydro-1H-pyrazol-1-yl)benzene sulfonamide]", "values": [
      {"measurement": "IC50", "setting": "hCAIX", "value": "0.24 ± 0.08", "unit": "µM"},
      {"measurement": "IC50", "setting": "hCAXII", "value": "6.97 ± 0.14", "unit": "µM"}
    ]},
    {"smiles": "COc1cccc(C2CC(c3cc(Br)ccc3O)=NN2c2ccc(S(N)(=O)=O)cc2)c1", "note": "(stereo not drawn) [4g, 4-(3-(5-Bromo-2-hydroxyphenyl)-5-(3-methoxyphenyl)-4,5-dihydro-1H-pyrazol-1-yl)benzene sulfonamide]", "values": [
      {"measurement": "IC50", "setting": "hCAII", "value": "8.26 ± 0.99", "unit": "µM"},
      {"measurement": "IC50", "setting": "hCAIX", "value": "5.28 ± 0.69", "unit": "µM"},
      {"measurement": "IC50", "setting": "hCAXII", "value": "0.12 ± 0.07", "unit": "µM"}
    ]},
    {"smiles": "NS(=O)(=O)c1ccc(N2N=C(c3cc(Br)ccc3O)CC2c2ccc(Br)cc2)cc1", "note": "(stereo not drawn) [4h, 4-(3-(5-Bromo-2-hydroxyphenyl)-5-(4-bromophenyl)-4,5-dihydro-1H-pyrazol-1-yl)benzene sulfonamide]", "values": [
      {"measurement": "IC50", "setting": "hCAII", "value": "17.2 ± 1.77", "unit": "µM"},
      {"measurement": "IC50", "setting": "hCAIX", "value": "0.26 ± 0.04", "unit": "µM"},
      {"measurement": "IC50", "setting": "hCAXII", "value": "0.38 ± 0.1", "unit": "µM"}
    ]},
    {"smiles": "COc1cccc(C2CC(c3cc(Cl)cc(Cl)c3O)=NN2c2ccc(S(N)(=O)=O)cc2)c1", "note": "(stereo not drawn) [4i, 4-(3-(3,5-Dichloro-2-hydroxyphenyl)-5-(3-methoxyphenyl)-4,5-dihydro-1H-pyrazol-1-yl)benzene sulfonamide]", "values": [
      {"measurement": "IC50", "setting": "hCAII", "value": "8.15 ± 0.19", "unit": "µM"},
      {"measurement": "IC50", "setting": "hCAIX", "value": "4.51 ± 0.22", "unit": "µM"},
      {"measurement": "IC50", "setting": "hCAXII", "value": "1.6 ± 0.01", "unit": "µM"}
    ]},
    {"smiles": "Cc1ccc(C2CC(c3ccc(F)cc3O)=NN2c2ccc(S(N)(=O)=O)cc2)cc1", "note": "(stereo not drawn) [4j, 4-(3-(4-Fluoro-2-hydroxyphenyl)-5-(p-tolyl)-4,5-dihydro-1H-pyrazol-1-yl)benzene sulfonamide]", "values": [
      {"measurement": "IC50", "setting": "hCAII", "value": "0.39 ± 0.05", "unit": "µM"},
      {"measurement": "IC50", "setting": "hCAIX", "value": "0.15 ± 0.07", "unit": "µM"},
      {"measurement": "IC50", "setting": "hCAXII", "value": "0.28 ± 0.05", "unit": "µM"}
    ]},
    {"smiles": "COc1ccccc1C1CC(c2ccc(F)cc2O)=NN1c1ccc(S(N)(=O)=O)cc1", "note": "(stereo not drawn) [4k, 4-(3-(4-Fluoro-2-hydroxyphenyl)-5-(2-methoxyphenyl)-4,5-dihydro-1H-pyrazol-1-yl)benzene sulfonamide]", "values": [
      {"measurement": "IC50", "setting": "hCAXII", "value": "1 ± 0.09", "unit": "µM"}
    ]}
  ]
}
